The target of data set [1] is T1, human vasopressin V2 receptor subtype (Homo sapiens, UniProt P30518).
T1 construct: host or cells: CHO cells, pZeoSV vector
Nature of the data set: Vasopressin binding in CHO cell membranes expressing human vasopressin V2 subtype receptors ([3H]arginine vasopressin radioligand binding). Conditions: for inhibition at 0.1 µM: @ 100 nM; for IC50: value printed in parentheses. An excerpt:
Vasopressin Binding in Chinese Hamster Ovary Cell Membranes Expressing Human Vasopressin V2 Subtype Receptors
Chinese Hamster Ovary (CHO) cells stably transfected with the human V2 subtype receptors were obtained from M. Thibonnier, Case Western Reserve University School of Medicine, Cleveland, Ohio.
A. Passaging and Amplification of Cells
CHO cells transfected with the human vasopressin V2 subtype receptors obtained from M. Thibonnier (pZeoSV vector) are allowed to grow to confluency (approx. >90%) in T-150 flasks under sterile conditions, in a cell culture medium ofF-12 Nutrient Mixture (HAM) with L-glutamine (Gibco Cat. #11765-054) containing 15 mM HEPES (Gibco Cat. #15630-080), 1% antibiotic/antimycotic (add 5 mL 100×, Gibco Cat. #15240-062 per 500 mL F-12), 250 μg/mL Zeocin (add 1.25 mL of 100 mg/mL Invitrogen R-250-01 per 500 mL F-1 2) and 10% Fetal Bovine Serum (Qualified, heat inactivated, Gibco Cat. #16140-063). The medium is removed by aspiration and the cells washed with 10 mL of Hank's Balanced Salt solution (Gibco Cat. #14175-095). The salt solution is removed by aspiration and the cells trypsinized with 5 mL of trypsin-EDTA (0.05% trypsin, 0.53 mM EDTA-4Na, Gibco Cat. #25300-070) for 1 min. The trypsin is removed by aspiration and the cells dislodged by tapping. Cell Culture medium (e.g. 30 mL for 1:30 split) is immediately added and mixed well to inactivate trypsin. 1 mL of detached cells is added to new culture flasks containing fresh Cell Culture medium (e.g. into 25 mL per T-150 flask), and mixed gently. The cells are incubated at 37° C. in 5% CO2. The medium is changed at 3 to 4 day interval (or as appropriate). The cells grow to confluency (approx. >75%-95%) within 7-8 days. All steps are done under sterile conditions.
The cells are washed twice gently with Hank's Balanced Salt solution (e.g. use 10 mL per T-150 flask). The excess solution is removed and the cells bathed for 15-30 min. in an enzyme-free Cell Dissociation Buffer (e.g. use 8 mL Hank's Based, Gibco Cat. # 13150-016 per T-150 flask) until cells are loosened. The contents are transferred to centrifuge tubes (50 mL) kept in ice bath. All subsequent steps are done at 4° C. The tubes are centrifuged at 300×g for 15 min (1380 rpm on SORVAL, Model RT6000D, using the rotor for 50 mL tubes). The supernatant is discarded and the cells suspended in homogenizing buffer (10 mM Tris-HCl containing 0.25 M sucrose and 1 mM EDTA, pH 7.4) ensuring that the volume of the buffer is about ten times the volume of the cell pellet. The cells are pooled into a centrifuge tube (50 mL) and homogenized with Polytron at setting 6 for 10 sec. The homogenate is transferred into a Potter-Elvjehm homogenizer and homogenized with 3 strokes. The homogenate is centrifuged at 1500×g for 60 min at 4° C. (3100 rpm using SORVAL, model RT6000D, using the rotor for 50 mL tubes). The pellet is discarded. The supernatant is centrifuged at 100,000×g for 60 min. at 4° C. (Beckman L8-80M ultracentrifuge; spin at 37,500 rpm with rotor type 70 Ti for 50 mL tubes; 38,000 rpm with type 80Ti for 15 mL tubes; or 35,800 rpm with rotor type 45Ti). The supernantant is discarded and the pellet suspended in 3 to 4 mL of Tris buffer (50 mM TRIS—HCl, pH 7.4). The protein content is estimated by the Bradford or Lowry method. The volume of the membrane suspension is adjusted with the membrane buffer (50 mM Tris-HCl containing 0.1% BSA and 0.1 mM PMSF) to give 3.0 mg/mL (or as appropriate) of protein. The membranes are aliquoted and stored at −70. ° C.
C. Radioligand Binding Assay
In wells of a 96-well format microtiter plate, is added 90, 110 or 130 μL (to make up a final volume of 200 μL) of assay buffer containing 50 mM of Tris-HCl (pH 7.4), […], 1 mg % aprotinin, 1 mg % leupeptin, 2 mg % 1,10-phenanthroline, 10 mg % trypsin inhibitor, and 0.1 mM PMSF. The inhibitors are added on the day of the experiment. […]

T1 sequence (P30518 whole entry): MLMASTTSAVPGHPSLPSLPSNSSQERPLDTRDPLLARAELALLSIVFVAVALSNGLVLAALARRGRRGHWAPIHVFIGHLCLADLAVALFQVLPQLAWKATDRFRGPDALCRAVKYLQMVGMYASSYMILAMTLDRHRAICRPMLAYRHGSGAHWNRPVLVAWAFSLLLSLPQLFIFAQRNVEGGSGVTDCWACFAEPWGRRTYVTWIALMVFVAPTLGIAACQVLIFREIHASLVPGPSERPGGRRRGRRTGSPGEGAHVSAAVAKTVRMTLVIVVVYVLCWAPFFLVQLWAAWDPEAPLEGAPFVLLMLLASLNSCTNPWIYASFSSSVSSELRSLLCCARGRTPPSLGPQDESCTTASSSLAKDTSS

Broadly, the inhibition is the change of the read-out against control, counted positive when it falls. The melting point is the temperature, or range, at which the solid turns liquid. On to `COc1cc2c(cc1OC)N(C(=O)c1ccc(-c3ccccc3C(F)(F)F)c(C)c1)Cc1ccc(C(=O)N(CCO)CCO)n1C2` [Example 19, N,N-Bis(2-Hydroxyethyl)-7,8-dimethoxy-10-{[2-methyl-2′-trifluoromethyl-[1,1′-biphenyl]-4-yl]carbonyl}-10,11-dihydro-5H-pyrrolo[2,1-c][1,4]benzodiazepine-3-carboxamide], for which the melting point lay within 130 to 132 °C. Further, in data set [1], the inhibition at 0.1 µM worked out at 3%.

Turning to `COc1cc2c(cc1OC)N(C(=O)c1ccc(-c3ccccc3C(F)(F)F)c(C)c1)Cc1ccc(C(=O)N(C)CC(O)CO)n1C2` (stereo not drawn) [Example 18, N-(2,3-Dihydroxypropyl)-7,8-dimethoxy-N-methyl-10-{[2-methyl-2′-trifluoromethyl-[1,1′-biphenyl]-4-yl]carbonyl}-10,11-dihydro-5H-pyrrolo[2,1-c][1,4]benzodiazepine-3-carboxamide], the melting point lay in the range of 184 to 186 °C. For the same compound, the inhibition at 0.1 µM in data set [1] was -5%.

As usually defined, the IC50 is the concentration at which inhibition is half-maximal. Regarding `COc1cc(C(=O)N2Cc3ccc(C(=O)N(C)CC(O)CO)n3Cc3ccccc32)ccc1-c1ccccc1C(F)(F)F` (stereo not drawn) [Example 21, N-(2,3-Dihydroxypropyl)-10-{[2-methoxy-2′-trifluoromethyl-[1,1′-biphenyl]-4-yl]carbonyl}-N-methyl-10,11-dihydro-5H-pyrrolo[2,1-c][1,4]benzodiazepine-3-carboxamide], the melting point fell in the range of 119 to 123 °C. The IC50 in data set [1] was determined as 311 nM.

As to `COc1cc(C(=O)N2Cc3ccc(C(=O)N(C)CC(O)CN(C)C)n3Cc3ccccc32)ccc1-c1ccccc1C(F)(F)F` (stereo not drawn) [Example 22, N-[(3-Dimethylamino)-2-hydroxy-propyl]-10-{[2-methoxy-2′-trifluoromethyl-[1,1′-biphenyl]-4-yl]carbonyl}-N-methyl-10,11-dihydro-5H-pyrrolo[2,1-c][1,4]benzodiazepine-3-carboxamide], the melting point is 120 to 125 °C (dec.). Moreover, the IC50 in data set [1] came to 1140 nM.

`Cc1cc(C(=O)N2Cc3ccc(C(=O)N(C)CC(O)CO)n3Cc3ccccc32)ccc1-c1ccccc1C(F)(F)F` (stereo not drawn) [Example 2, 10-[(2-Methyl-2′-trifluoromethyl-[1,1′-biphenyl]-4-yl)carbonyl]-10,11-dihydro-5H-pyrrolo[2,1-c][1,4]benzodiazepine-3-carboxylic acid (2,3-dihydroxy-propyl)-methyl-amide] showed a melting point of 169 to 172 °C. In data set [1], the 50% inhibitory concentration (IC50) stood at 633 nM.

As for `COc1cc2c(cc1OC)N(C(=O)c1ccc(-c3ccccc3OC)c(C)c1)Cc1ccc(C(=O)N(C)C[C@H](O)[C@@H](O)[C@H](O)[C@H](O)CO)n1C2` [Example 37, 7,8-Dimethoxy-10-[(2′-methoxy-2-methyl-[1,1′-biphenyl]-4-yl)carbonyl]-10,11-dihydro-5H-pyrrolo[2,1-c][1,4]benzodiazepine-3-carboxylic acid methyl-[(2S, 3R, 4R, 5R)-2,3,4,5,6-pentahydroxy-hexyl)-amide], the melting point fell in the range of 110 to 120 °C. The inhibition at 0.1 µM in data set [1] is 7%.

Values taken from patent publication US6900200B2, “Tricyclic hydroxy carboxamides and derivatives thereof tocolytic oxytocin receptor antagonists” (Wyeth, priority 2001, dated 2005).
